{"source": "paper PMC7343746", "about": "“(2S, 4R)-4-[^18F]Fluoroglutamine for In vivo PET Imaging of Glioma Xenografts in Mice: an Evaluation of Multiple Pharmacokinetic Models” (Molecular Imaging and Biology, 2020)", "key": {"[1]": {"test_system": "patient-derived BT3 glioma cells", "assay": "Ex vivo autoradiography of brain cryosections, orthotopic glioma", "assay_type": "in vivo, BALB/cOlaHsd-Foxn1^nu mouse", "conditions": "for Autoradiography TBRmean: n = 12 brain sections", "text": "See Suppl. Materials in ESM for detailed descriptions of biodistribution, stability, cryosectioning, autoradiography, and histology."}, "[2]": {"test_system": "rat BT4C glioma cells", "assay": "Yokoi plot, subcutaneous model", "assay_type": "in vivo, Foxn1^nu/nu mouse", "conditions": "for Yokoi K1 (AB) plasma to tissue transport rate / Yokoi K1/k2 (AB) binding potential / Yokoi k2 (AB) tissue to plasma transport rate: AB input; for Yokoi K1 (PC) plasma to tissue transport rate / Yokoi K1/k2 (PC) binding potential / Yokoi k2 (PC) tissue to plasma transport rate: PC input", "experimental": "(§1) Image analysis was performed using CARIMAS software published and freely distributed by the Turku PET Center (http://turkupetcentre.fi/carimas/). CT scans were used as rough anatomical reference while tumor regions of interest (ROI) were hand-drawn based upon observed spikes of radioactivity in the PET images at locations correlating with recorded tumor grafts. Control muscle ROIs were drawn on the side opposite to the tumor in the leg flank muscle (based on CT) while the blood ROI was drawn based upon heart anatomical location and observed PET image radioactivity spike during the initial 20 s of imaging in the left ventricle. Standardized uptake values (SUV) were calculated with respect to ROI volume, mean and max tumor radioactivity, total injected radioactivity dose (corrected for tail, cannula, and syringe residual radioactivity), and animal weight, and were additionally presented as tumor-to-background ratio (TBR, tumor-to-healthy brain region for intracranial gliomas and tumor-to-muscle for subcutaneous gliomas) as defined by recent glioma research literature standards. Mean and maximum TBR values were reported as ROI radioactivity per volume divided by mean background radioactivity per volume. The blood radioactivity SUV and gender-specific metabolite-corrected blood radioactivity SUV were then applied to multiple pharmacokinetic models to characterize the flux of the tracer (further described in the “Modeling” section).\n(§2) Using the heart’s left ventricle ROI from the PET data as an uncorrected radioactivity level input and the bioavailable parent-tracer fraction (results: Eqs. 3 and 4 applied to the uncorrected input) as the corrected input, multiple models were investigated to characterize the tissue uptake dynamics. Two-compartment modeling and Logan, Patlak, and Yokoi plots were used to separately model the pharmacokinetics for the gliomas (both subcutaneous and orthotopic loci) and their respective control tissues (healthy muscle and healthy brain, respectively). Where indicated, means plus/minus standard deviations are reported. Difference in parameters for uncorrected versus correct and target tissue versus their respective control regions were tested with students’ paired t tests with P values lower than 0.05 being considered significant."}, "[3]": {"test_system": "rat BT4C glioma cells", "assay": "Patlak plot (irreversible uptake model), subcutaneous model", "assay_type": "in vivo, Foxn1^nu/nu mouse", "conditions": "for Patlak Ic (AB) y intercept: AB input; for Patlak Ic (PC) y intercept: PC input", "experimental": "as §1, §2"}, "[4]": {"test_system": "patient-derived BT3 glioma cells", "assay": "Patlak plot (irreversible uptake model), orthotopic model", "assay_type": "in vivo, BALB/cOlaHsd-Foxn1^nu mouse", "conditions": "for Patlak Ic (AB) y intercept: AB input; for Patlak Ic (PC) y intercept: PC input", "experimental": "as §1, §2"}, "[5]": {"test_system": "rat BT4C glioma cells", "assay": "Logan plot (reversible uptake model), subcutaneous model", "assay_type": "in vivo, Foxn1^nu/nu mouse", "experimental": "as §1, §2"}, "[6]": {"conditions": "Bone (femoral condyle) average (n = 6)"}, "[7]": {"conditions": "Bone (femoral condyle) average (n = 6), AB input"}}}
{"smiles": "NC(=O)[C@H]([18F])C[C@H](N)C(=O)O", "note": "[[^18F]FGln, (2S, 4R)-4-[^18F]fluoroglutamine]", "values": [{"measurement": "Autoradiography TBRmean", "setting": "[1]; Subject A", "value": "8.9 ± 1.1 (range 7.2–10.5)"}, {"measurement": "Autoradiography TBRmean", "setting": "[1]; Subject B", "value": "9.9 ± 0.7 (range 8.9–11.0)"}, {"measurement": "Autoradiography TBRmean", "setting": "[1]; Subject C", "value": "7.8 ± 0.4 (range 7.3–8.4)"}, {"measurement": "Autoradiography TBR, average", "setting": "[1]; n = 3 subjects, 36 sections", "value": "8.9 ± 1.1"}, {"measurement": "Yokoi K1 (AB) plasma to tissue transport rate", "setting": "[2]; [6]", "value": "0.075 ± 0.013", "unit": "mL min-1 mL-1"}, {"measurement": "Yokoi K1/k2 (AB) binding potential", "setting": "[2]; [6]", "value": "5.48 ± 2.21", "unit": "mL mL-1"}, {"measurement": "Yokoi k2 (AB) tissue to plasma transport rate", "setting": "[2]; [6]", "value": "0.017 ± 0.012", "unit": "min⁻¹"}, {"measurement": "Yokoi K1 (PC) plasma to tissue transport rate", "setting": "[2]; [6]", "value": "0.086 ± 0.015", "unit": "mL min-1 mL-1"}, {"measurement": "Yokoi K1/k2 (PC) binding potential", "setting": "[2]; [6]", "value": "37.68 ± 39.62", "unit": "mL mL-1"}, {"measurement": "Yokoi k2 (PC) tissue to plasma transport rate", "setting": "[2]; [6]", "value": "0.005 ± 0.006", "unit": "min⁻¹"}, {"measurement": "Yokoi K1 (AB) plasma to tissue transport rate", "setting": "[2]; Flank muscle average (n = 6)", "value": "0.057 ± 0.023", "unit": "mL min-1 mL-1"}, {"measurement": "Yokoi K1/k2 (AB) binding potential", "setting": "[2]; Flank muscle average (n = 6)", "value": "0.76 ± 0.13", "unit": "mL mL-1"}, {"measurement": "Yokoi k2 (AB) tissue to plasma transport rate", "setting": "[2]; Flank muscle average (n = 6)", "value": "0.074 ± 0.028", "unit": "min⁻¹"}, {"measurement": "Yokoi K1 (PC) plasma to tissue transport rate", "setting": "[2]; Flank muscle average (n = 6)", "value": "0.054 ± 0.017", "unit": "mL min-1 mL-1"}, {"measurement": "Yokoi K1/k2 (PC) binding potential", "setting": "[2]; Flank muscle average (n = 6)", "value": "1.37 ± 0.23", "unit": "mL mL-1"}, {"measurement": "Yokoi k2 (PC) tissue to plasma transport rate", "setting": "[2]; Flank muscle average (n = 6)", "value": "0.039 ± 0.013", "unit": "min⁻¹"}, {"measurement": "Yokoi K1 (AB) plasma to tissue transport rate", "setting": "[2]; Flank tumor average (n = 6)", "value": "0.121 ± 0.039", "unit": "mL min-1 mL-1"}, {"measurement": "Yokoi K1/k2 (AB) binding potential", "setting": "[2]; Flank tumor average (n = 6)", "value": "1.13 ± 0.09", "unit": "mL mL-1"}, {"measurement": "Yokoi k2 (AB) tissue to plasma transport rate", "setting": "[2]; Flank tumor average (n = 6)", "value": "0.106 ± 0.029", "unit": "min⁻¹"}, {"measurement": "Yokoi K1 (PC) plasma to tissue transport rate", "setting": "[2]; Flank tumor average (n = 6)", "value": "0.105 ± 0.027", "unit": "mL min-1 mL-1"}, {"measurement": "Yokoi K1/k2 (PC) binding potential", "setting": "[2]; Flank tumor average (n = 6)", "value": "1.95 ± 0.15", "unit": "mL mL-1"}, {"measurement": "Yokoi k2 (PC) tissue to plasma transport rate", "setting": "[2]; Flank tumor average (n = 6)", "value": "0.054 ± 0.011", "unit": "min⁻¹"}, {"measurement": "Yokoi K1 (AB) plasma to tissue transport rate", "setting": "[2]; Neck tumor average (n = 6)", "value": "0.179 ± 0.076", "unit": "mL min-1 mL-1"}, {"measurement": "Yokoi K1/k2 (AB) binding potential", "setting": "[2]; Neck tumor average (n = 6)", "value": "1.21 ± 0.08", "unit": "mL mL-1"}, {"measurement": "Yokoi k2 (AB) tissue to plasma transport rate", "setting": "[2]; Neck tumor average (n = 6)", "value": "0.146 ± 0.056", "unit": "min⁻¹"}, {"measurement": "Yokoi K1 (PC) plasma to tissue transport rate", "setting": "[2]; Neck tumor average (n = 6)", "value": "0.135 ± 0.039", "unit": "mL min-1 mL-1"}, {"measurement": "Yokoi K1/k2 (PC) binding potential", "setting": "[2]; Neck tumor average (n = 6)", "value": "2.08 ± 0.13", "unit": "mL mL-1"}, {"measurement": "Yokoi k2 (PC) tissue to plasma transport rate", "setting": "[2]; Neck tumor average (n = 6)", "value": "0.065 ± 0.016", "unit": "min⁻¹"}, {"measurement": "Patlak Ic (AB) y intercept", "setting": "[3]; [6]", "value": "0.5752 ± 0.1597"}, {"measurement": "Patlak Ic (PC) y intercept", "setting": "[3]; [6]", "value": "0.3705 ± 0.2561"}, {"measurement": "Patlak Ic (AB) y intercept", "setting": "[3]; Flank muscle average (n = 6)", "value": "0.5790 ± 0.1835"}, {"measurement": "Patlak Ic (PC) y intercept", "setting": "[3]; Flank muscle average (n = 6)", "value": "0.8154 ± 0.2742"}, {"measurement": "Patlak Ic (AB) y intercept", "setting": "[3]; Flank tumor average (n = 6)", "value": "1.0521 ± 0.2524"}, {"measurement": "Patlak Ic (PC) y intercept", "setting": "[3]; Flank tumor average (n = 6)", "value": "1.5318 ± 0.3888"}, {"measurement": "Patlak Ic (AB) y intercept", "setting": "[3]; Neck tumor average (n = 6)", "value": "1.2083 ± 0.1715"}, {"measurement": "Patlak Ic (PC) y intercept", "setting": "[3]; Neck tumor average (n = 6)", "value": "1.7708 ± 0.2668"}, {"measurement": "Irreversible uptake rate relative to reversible uptake rates", "setting": "[3]; Patlak versus reversible models", "value": "roughly 15 times lower"}, {"measurement": "Patlak Ic (AB) y intercept", "setting": "[4]; Subject A brain (control)", "value": 0.1654}, {"measurement": "Patlak Ic (PC) y intercept", "setting": "[4]; Subject A brain (control)", "value": 0.2100}, {"measurement": "Patlak Ic (AB) y intercept", "setting": "[4]; Subject A glioma max.", "value": 1.07}, {"measurement": "Patlak Ic (PC) y intercept", "setting": "[4]; Subject A glioma max.", "value": 1.4536}, {"measurement": "Patlak Ic (AB) y intercept", "setting": "[4]; Subject A o.t. glioma", "value": 0.7386}, {"measurement": "Patlak Ic (PC) y intercept", "setting": "[4]; Subject A o.t. glioma", "value": 0.9480}, {"measurement": "Patlak Ic (AB) y intercept", "setting": "[4]; Subject B brain (control)", "value": 0.1316}, {"measurement": "Patlak Ic (PC) y intercept", "setting": "[4]; Subject B brain (control)", "value": 0.1563}, {"measurement": "Patlak Ic (AB) y intercept", "setting": "[4]; Subject B glioma max.", "value": 0.4556}, {"measurement": "Patlak Ic (PC) y intercept", "setting": "[4]; Subject B glioma max.", "value": 0.5434}, {"measurement": "Patlak Ic (AB) y intercept", "setting": "[4]; Subject B o.t. glioma", "value": 0.4687}, {"measurement": "Patlak Ic (PC) y intercept", "setting": "[4]; Subject B o.t. glioma", "value": 0.5996}, {"measurement": "AB distribution volume", "setting": "[5]; Bone (femoral condyle) (n = 6), arterial blood input", "value": "5.11 ± 2.19"}, {"measurement": "PC distribution volume", "setting": "[5]; Bone (femoral condyle) (n = 6), plasma-corrected input", "value": "13.47 ± 7.70"}, {"measurement": "Logan DV (AB) distribution volume", "setting": "[5]; [7]", "value": "5.11 ± 2.19"}, {"measurement": "Logan Ic (AB) y intercept", "setting": "[5]; [7]", "value": "-66.36 ± 26.46"}, {"measurement": "Logan DV (PC) distribution volume", "setting": "[5]; Bone (femoral condyle) average (n = 6), PC input", "value": "13.47 ± 7.70"}]}
